Measurements published in patent US20250011881A1, “MYC-HSF1 DUAL AMPLIFICATION AS A BIOMARKER FOR CANCER TREATMENT” (The Trustees of Indiana University, priority 2023, published 2025).
“And” between values parts separate entries of the source, which are not always exact repeats. Equal entries are not always repeated. Structures can show the parent of a compound that is named as a salt. Where two headings read alike, the source gives them in different places.

Test system: ovarian cancer cells with (OVCAR8, OVCAR4) or without (OVSAHO, CAOV3) MYC-HSF1 amplification
Test: Epigenetic inhibitor drug screen, cell viability (Cell Titer Blue)
Assay type: cell-based
[1] = 10 uM, 48 hrs, average relative cell viability (vs 1% DMSO) of non-amplified cells (OVSAHO, CAOV3) minus that of MYC-HSF1 amplified cells (OVCAR8, OVCAR4), positive = greater response in amplified cells
[2] = 10 uM, 48 hrs, average relative cell viability (vs 1% DMSO) of non-amplified cells (OVSAHO, CAOV3) minus that of MYC-HSF1 amplified cells (OVCAR8, OVCAR4), positive = greater response in amplified cells, 10 µM

Row | Structure (SMILES) | Non Amp - AMP (POC) 10 uM [1] [POC] | further results
1 | Cl.Cl.c1ccc([C@@H]2C[C@H]2NC2CCNCC2)cc1 [GSK-LSD1 2HCl] | – | Non Amp - AMP (POC) 10 uM: 2.922 POC
2 | c1ccc([C@@H]2C[C@H]2NC2CCNCC2)cc1 [GSK-LSD1 (hydrochloride)] | 14.88 | –
3 | C=C(C)[C@@H](CC=C(C)C)C[C@@]12C[C@@H](CC=C(C)C)C(C)(C)[C@@](CC=C(C)C)(C(=O)C(C(=O)c3ccc(O)c(O)c3)=C1O)C2=O [Garcinol] | 6.401 | –
4 | Nc1ccn([C@@H]2O[C@H](CO)[C@@H](O)C2(F)F)c(=O)n1 [Gemcitabine HCl] | – | Non Amp - AMP (POC) 10 uM (10 uM, 48 hrs, average relative cell viability (vs 1% DMSO) of non-amplified cells (OVSAHO, CAOV3) minus that of MYC-HSF1 amplified cells (OVCAR8, OVCAR4), positive = greater response in amplified cells, HCl, 10 µM): 8.319 POC
5 | Nc1ccn([C@@H]2O[C@H](CO)[C@@H](O)C2(F)F)c(=O)n1 [Gemcitabine] | – | Non Amp - AMP (POC) 10 uM [2]: 28.61 POC
6 | Cn1c2ccccc2c2c3c(c4c5ccccc5n(CCC#N)c4c21)CNC3=O [Go 6976] | 5.045 | –
7 | COc1ccc2c(c1)c(C1=C(c3c[nH]c4ccccc34)C(=O)NC1=O)cn2CCCN(C)C [Go 6983] | 14.34 | –
8 | Cl.O=S(=O)(c1cccc2cnccc12)N1CCNCC1 [HA-100 (hydrochloride)] | 12.45 | –
9 | O=C1/C(=C/c2ccc(O)c(Br)c2)CCC/C1=C\c1ccc(O)c(Br)c1 [HAT Inhibitor II] | −25.46 | –
10 | O=C(NO)c1ccc(CC(=O)N(CCO)c2ccccc2)cc1 [HPOB] | 18.14 | –
11 | Cc1nc(Nc2cnn(C3CCNCC3)c2)nc2c1N(C)C(=O)c1cc3ccccc3cc1N2C [HTH-01-015] | −3.924 | –
12 | CCS(=O)(=O)Nc1ccc2c(c1)/C(=C(/Nc1ccc(CN3CCCCC3)cc1)c1ccccc1)C(=O)N2 [Hesperadin] | – | Non Amp - AMP (POC) 10 uM: 39.85 POC
13 | CC(C)c1cccc(=O)c(O)c1 [Hinokitiol] | −6.718 | –
14 | COc1cc2c(cc1-c1c(C)noc1C)ncc1[nH]c(=O)n([C@H](C)c3ccccn3)c12 [I-BET151] | – | Non Amp - AMP (POC) 10 uM [2]: 21.72 POC; Non Amp - AMP (POC) 10 uM (10 uM, 48 hrs, average relative cell viability (vs 1% DMSO) of non-amplified cells (OVSAHO, CAOV3) minus that of MYC-HSF1 amplified cells (OVCAR8, OVCAR4), positive = greater response in amplified cells, listed as I-BET151 (GSK1210151A), 10 µM): 3.072 POC
15 | CCNC(=O)C[C@@H]1N=C(c2ccc(Cl)cc2)c2cc(OC)ccc2-n2c(C)nnc21 [I-BET-762] | – | Non Amp - AMP (POC) 10 uM [2]: 5.52 POC; Non Amp - AMP (POC) 10 uM (10 uM, 48 hrs, average relative cell viability (vs 1% DMSO) of non-amplified cells (OVSAHO, CAOV3) minus that of MYC-HSF1 amplified cells (OVCAR8, OVCAR4), positive = greater response in amplified cells, listed as I-BET762, 10 µM): −1.572 POC
16 | CCC(=O)N1CCOc2c(cc(-c3ccc(OC)c(OC)c3)cc2OC[C@H]2CCCN(C)C2)C1 [I-CBP112 (hydrochloride)] | 20.48 | –
17 | O=c1[nH]cnc2c1ncn2[C@@H]1O[C@H](CO)[C@@H](O)[C@H]1O [INO-1001] | −1.319 | –
18 | O=C(O)c1ccc(O)c2ncccc12 [IOX1] | – | Non Amp - AMP (POC) 10 uM [2]: 11.45 POC; Non Amp - AMP (POC) 10 uM (10 uM, 48 hrs, average relative cell viability (vs 1% DMSO) of non-amplified cells (OVSAHO, CAOV3) minus that of MYC-HSF1 amplified cells (OVCAR8, OVCAR4), positive = greater response in amplified cells, listed as IOX 1, 10 µM): 2.198 POC
19 | O=C(O)CNC(=O)c1c(O)c2ccccc2n(Cc2ccccc2)c1=O [IOX2(Glycine)] | 10.17 | –
20 | CCN(CC)Cc1ccc2cc(COC(=O)Nc3ccc(C(=O)NO)cc3)ccc2c1 [ITF 2357, Givinostat] | – | Non Amp - AMP (POC) 10 uM [2]: 40.35 POC; Non Amp - AMP (POC) 10 uM (10 uM, 48 hrs, average relative cell viability (vs 1% DMSO) of non-amplified cells (OVSAHO, CAOV3) minus that of MYC-HSF1 amplified cells (OVCAR8, OVCAR4), positive = greater response in amplified cells, listed as ITF2357 (Givinostat), 10 µM): 13.67 POC
21 | O=C(Nn1nnc2ccccc21)c1ccc(Cl)cc1Cl [ITSA-1 (ITSA1)] | 7.283 | –
22 | NC(=O)c1ccc(I)c([N+](=O)[O-])c1 [Iniparib (BSI-201), Iniparib] | −7.53 | –
23 | COc1cc2ncnc(Nc3ccc(O)cc3)c2cc1OC [JANEX-1] | −13.67 | –
24 | O=C(NCc1ccccc1)c1c(/N=C/c2c(O)ccc3ccccc23)sc2c1CCCC2 [JGB1741] | 9.247 | –
25 | Clc1ccc(N/N=C(\c2ccccc2)c2ccccn2)nc1 [JIB-04] | – | Non Amp - AMP (POC) 10 uM [2]: 13.4 POC and 8.34 POC
26 | Nc1nc(Nc2ccc(S(N)(=O)=O)cc2)nn1C(=O)c1c(F)cccc1F [JNJ-7706621] | −15.24 | –
27 | Cn1cc(CNCC2CCN(c3ncc(C(=O)NO)cn3)CC2)c2ccccc21 [JNJ-26481585] | – | Non Amp - AMP (POC) 10 uM [2]: 38.34 POC and 26.25 POC
28 | COc1ccc(C2(CNC(=O)c3ccc(NC(=O)c4ccco4)cc3)CCOCC2)cc1 [JW 55] | −6.598 | –
29 | O=S(=O)(NCCSSCCNS(=O)(=O)c1cc(Cl)ccc1Cl)c1cc(Cl)ccc1Cl [KC7F2] | −3.553 | –
30 | CC(=O)SCC(=O)c1ccc(NS(=O)(=O)c2ccc(OCCCN(C)C)cc2)nc1 [KD 5170] | 12.43 | –
